Species: Rattus norvegicus
Experiment: DrugMatrix - Regimen: Daily Repeat
Format: toxicity, organism-based, Sprague-Dawley
Design: regimen Daily Repeat, gender Male, age 6-8 weeks
Settings: in vivo, po, route oral GAVAGE, vehicle .5 % CMC; for ABSOLUTE BASOPHIL / BASOPHIL / EOSINOPHIL / ERYTHROCYTE COUNT / HEMATOCRIT / HEMOGLOBIN / LEUKOCYTE COUNT / LYMPHOCYTE / MEAN CORPUSCULAR HEMOGLOBIN / MEAN CORPUSCULAR HEMOGLOBIN CONCENTRATION / MEAN CORPUSCULAR VOLUME / MONOCYTE / NEUTROPHIL / PLATELET COUNT: tissue Blood; for ALANINE AMINOTRANSFERASE / ALKALINE PHOSPHATASE / ASPARTATE AMINOTRANSFERASE / BLOOD UREA NITROGEN / CHLORIDE / CHOLESTEROL / CREATINE PHOSPHOKINASE / CREATININE / GLUCOSE / PHOSPHORUS / POTASSIUM / SODIUM / TOTAL BILIRUBIN / TOTAL PROTEIN: tissue Plasma
[1] = 0 mg/kg, 72 h, dose level Control, time 3 day
[2] = 0 mg/kg, 120 h, dose level Control, time 5 day
[3] = 32 mg/kg, 72 h, dose level Low, time 3 day
[4] = 32 mg/kg, 120 h, dose level Low, time 5 day
[5] = 320 mg/kg, 72 h, dose level High, time 3 day
[6] = 320 mg/kg, 120 h, dose level High, time 5 day

## C1CCC(C(CC2CCCCN2)C2CCCCC2)CC1 (stereo not drawn) [PERHEXILINE]
[1]
  ABSOLUTE BASOPHIL: 16.7 cells/µL
  BASOPHIL: 0.17%
  EOSINOPHIL: 0.62%
  ERYTHROCYTE COUNT: 6.55 x10E6/uL
  HEMATOCRIT: 42%
  HEMOGLOBIN: 13.48 G/DL
  LEUKOCYTE COUNT: 8.79 x10E3/uL
  LYMPHOCYTE: 76.98%
  MEAN CORPUSCULAR HEMOGLOBIN: 20.57 pg
  MEAN CORPUSCULAR HEMOGLOBIN CONCENTRATION: 32.08 G/DL
  MEAN CORPUSCULAR VOLUME: 64.1 fL
  MONOCYTE: 2.12%
  NEUTROPHIL: 19%
  PLATELET COUNT: 1432.17 x10E3/uL
  ALANINE AMINOTRANSFERASE: 42.83 u/L
  ALKALINE PHOSPHATASE: 328.5 u/L
  ASPARTATE AMINOTRANSFERASE: 78.33 u/L
  BLOOD UREA NITROGEN: 14.5 mg/dL
  CHLORIDE: 104.5 MEQ/L
  CHOLESTEROL: 78.67 mg/dL
  CREATINE PHOSPHOKINASE: 282.33 u/L
  CREATININE: 0.25 mg/dL
  GLUCOSE: 173.67 mg/dL
  PHOSPHORUS: 12.83 mg/dL
  POTASSIUM: 6.7 MEQ/L
  SODIUM: 145.83 MEQ/L
  TOTAL BILIRUBIN: 0.4 mg/dL
  TOTAL PROTEIN: 5.93 G/DL
[2]
  ABSOLUTE BASOPHIL: 28 cells/µL
  BASOPHIL: 0.26%
  EOSINOPHIL: 0.44%
  ERYTHROCYTE COUNT: 6.99 x10E6/uL
  HEMATOCRIT: 45.12%
  HEMOGLOBIN: 14.26 G/DL
  LEUKOCYTE COUNT: 9.42 x10E3/uL
  LYMPHOCYTE: 79.92%
  MEAN CORPUSCULAR HEMOGLOBIN: 20.44 pg
  MEAN CORPUSCULAR HEMOGLOBIN CONCENTRATION: 31.62 G/DL
  MEAN CORPUSCULAR VOLUME: 64.6 fL
  MONOCYTE: 2.2%
  NEUTROPHIL: 16.14%
  PLATELET COUNT: 1062.2 x10E3/uL
  ALANINE AMINOTRANSFERASE: 44 u/L
  ALKALINE PHOSPHATASE: 342.6 u/L
  ASPARTATE AMINOTRANSFERASE: 74.17 u/L
  BLOOD UREA NITROGEN: 13 mg/dL
  CHLORIDE: 103 MEQ/L
  CHOLESTEROL: 72.83 mg/dL
  CREATINE PHOSPHOKINASE: 184.67 u/L
  CREATININE: 0.47 mg/dL
  GLUCOSE: 168.17 mg/dL
  PHOSPHORUS: 12.27 mg/dL
  POTASSIUM: 6.98 MEQ/L
  SODIUM: 147 MEQ/L
  TOTAL BILIRUBIN: 0.65 mg/dL
  TOTAL PROTEIN: 6.23 G/DL
[3]
  ABSOLUTE BASOPHIL: 20 cells/µL
  BASOPHIL: 0.17%
  EOSINOPHIL: 0.47%
  ERYTHROCYTE COUNT: 6.84 x10E6/uL
  HEMATOCRIT: 42.07%
  HEMOGLOBIN: 13.8 G/DL
  LEUKOCYTE COUNT: 11 x10E3/uL
  LYMPHOCYTE: 83.1%
  MEAN CORPUSCULAR HEMOGLOBIN: 20.2 pg
  MEAN CORPUSCULAR HEMOGLOBIN CONCENTRATION: 32.8 G/DL
  MEAN CORPUSCULAR VOLUME: 61.57 fL
  MONOCYTE: 1.9%
  NEUTROPHIL: 12.83%
  PLATELET COUNT: 1282.33 x10E3/uL
  ALANINE AMINOTRANSFERASE: 33.33 u/L
  ALKALINE PHOSPHATASE: 346 u/L
  ASPARTATE AMINOTRANSFERASE: 61 u/L
  BLOOD UREA NITROGEN: 11.67 mg/dL
  CHLORIDE: 104.33 MEQ/L
  CHOLESTEROL: 65.33 mg/dL
  CREATINE PHOSPHOKINASE: 229 u/L
  CREATININE: 0.37 mg/dL
  GLUCOSE: 183.67 mg/dL
  PHOSPHORUS: 13.7 mg/dL
  POTASSIUM: 6.87 MEQ/L
  SODIUM: 145.33 MEQ/L
  TOTAL BILIRUBIN: 0.3 mg/dL
  TOTAL PROTEIN: 5.73 G/DL
[4]
  ABSOLUTE BASOPHIL: 150 cells/µL
  BASOPHIL: 1.2%
  EOSINOPHIL: 0.5%
  ERYTHROCYTE COUNT: 7.42 x10E6/uL
  HEMATOCRIT: 47.53%
  HEMOGLOBIN: 15.03 G/DL
  LEUKOCYTE COUNT: 12.21 x10E3/uL
  LYMPHOCYTE: 82.57%
  MEAN CORPUSCULAR HEMOGLOBIN: 20.33 pg
  MEAN CORPUSCULAR HEMOGLOBIN CONCENTRATION: 31.7 G/DL
  MEAN CORPUSCULAR VOLUME: 64.2 fL
  MONOCYTE: 2.13%
  NEUTROPHIL: 12.7%
  PLATELET COUNT: 1404 x10E3/uL
  ALANINE AMINOTRANSFERASE: 34.33 u/L
  ALKALINE PHOSPHATASE: 375.33 u/L
  ASPARTATE AMINOTRANSFERASE: 68.33 u/L
  BLOOD UREA NITROGEN: 11.33 mg/dL
  CHLORIDE: 102 MEQ/L
  CHOLESTEROL: 67 mg/dL
  CREATINE PHOSPHOKINASE: 206.67 u/L
  CREATININE: 0.3 mg/dL
  GLUCOSE: 187 mg/dL
  PHOSPHORUS: 12.13 mg/dL
  POTASSIUM: 6.8 MEQ/L
  SODIUM: 149.67 MEQ/L
  TOTAL BILIRUBIN: 0.3 mg/dL
  TOTAL PROTEIN: 6.4 G/DL
[5]
  ABSOLUTE BASOPHIL: 33.3 cells/µL
  BASOPHIL: 0.33%
  EOSINOPHIL: 0.4%
  ERYTHROCYTE COUNT: 7.33 x10E6/uL
  HEMATOCRIT: 45.27%
  HEMOGLOBIN: 14.7 G/DL
  LEUKOCYTE COUNT: 9.79 x10E3/uL
  LYMPHOCYTE: 79.33%
  MEAN CORPUSCULAR HEMOGLOBIN: 20.1 pg
  MEAN CORPUSCULAR HEMOGLOBIN CONCENTRATION: 32.53 G/DL
  MEAN CORPUSCULAR VOLUME: 61.77 fL
  MONOCYTE: 1.37%
  NEUTROPHIL: 17.17%
  PLATELET COUNT: 1599 x10E3/uL
  ALANINE AMINOTRANSFERASE: 47 u/L
  ALKALINE PHOSPHATASE: 318.5 u/L
  ASPARTATE AMINOTRANSFERASE: 61.67 u/L
  BLOOD UREA NITROGEN: 9.67 mg/dL
  CHLORIDE: 102.33 MEQ/L
  CHOLESTEROL: 74 mg/dL
  CREATINE PHOSPHOKINASE: 199.67 u/L
  CREATININE: 0.33 mg/dL
  GLUCOSE: 167 mg/dL
  PHOSPHORUS: 14.17 mg/dL
  POTASSIUM: 6.63 MEQ/L
  SODIUM: 146.33 MEQ/L
  TOTAL BILIRUBIN: 0.33 mg/dL
  TOTAL PROTEIN: 6 G/DL
[6]
  ABSOLUTE BASOPHIL: 50 cells/µL
  BASOPHIL: 0.5%
  EOSINOPHIL: 0.34%
  ERYTHROCYTE COUNT: 7.26 x10E6/uL
  HEMATOCRIT: 45.84%
  HEMOGLOBIN: 14.82 G/DL
  LEUKOCYTE COUNT: 10.17 x10E3/uL
  LYMPHOCYTE: 80.92%
  MEAN CORPUSCULAR HEMOGLOBIN: 20.46 pg
  MEAN CORPUSCULAR HEMOGLOBIN CONCENTRATION: 32.36 G/DL
  MEAN CORPUSCULAR VOLUME: 63.26 fL
  MONOCYTE: 1.18%
  NEUTROPHIL: 16.4%
  PLATELET COUNT: 1254 x10E3/uL
  ALANINE AMINOTRANSFERASE: 48.8 u/L
  ALKALINE PHOSPHATASE: 300.75 u/L
  ASPARTATE AMINOTRANSFERASE: 75.6 u/L
  BLOOD UREA NITROGEN: 12.2 mg/dL
  CHLORIDE: 102.2 MEQ/L
  CHOLESTEROL: 68.6 mg/dL
  CREATINE PHOSPHOKINASE: 173.4 u/L
  CREATININE: 0.36 mg/dL
  GLUCOSE: 186.4 mg/dL
  PHOSPHORUS: 13.36 mg/dL
  POTASSIUM: 6.38 MEQ/L
  SODIUM: 146.8 MEQ/L
  TOTAL BILIRUBIN: 0.28 mg/dL
  TOTAL PROTEIN: 5.88 G/DL

Reference: ChEMBL document CHEMBL3885881, “DrugMatrix”
